Positions of bridges follow the written chain, without caps; N, C: chain ends. Residues, ends and D or L forms follow the SMILES beside them. No end group written: not given here.
Assays:
Type in all cases: in vivo
[1] = test system: steroid-induced growth failure, male Crlj:WI (Wistar) rat; experiment: Simultaneous combined administration test of various steroids and CNP derivative (A) in rats (Example 5); conditions: for Body length at dissection / Body length, variation from preadministration value (Δ value) / Body weight, variation from preadministration value (Δ value) / Right femur length at dissection / Tail length at dissection / Tail length, variation from preadministration value (Δ value) / Body weight at dissection: 1 mL/kg s.c. once a day 28 days, + medium or + CNP derivative (A) 1 mg/kg, n=5; for Body weight at dissection: 4-week-old male Wistar rat
Protocol: 0.3 mg/mL solution of dexamethasone (dexamethasone injection “KS”, available from Kyoritsuseiyaku Corporation diluted with saline), prednisolone succinate suspended in 0.1% polysorbate-containing brine (available from Wako Pure Chemical Industries, Ltd., concentration of 5 mg/mL as prednisolone), or betamethasone dipropionate suspended in 0.1% polysorbate-containing brine (available from Wako Pure Chemical Industries, Ltd., concentration of 0.3 mg/mL as betamethasone) was administered to the hypoderm of the back of a 4-week-old male Crlj:WI (Wistar) rat (ten animals for each set of substances) in a volume of 1 mL/kg once a day for 28 days. No substance was administered to the control group (5 animals, Group 1). At the same time, for five of ten animals in each set (Group 2, Group 4, Group 6) a medium (0.03 mol/L acetate buffer (pH 4.0)/1% benzyl alcohol/10% sucrose) and for the remaining five animals (Group 3, Group 5, Group 7) the medium and a 1 mg/mL solution of CNP derivative (A) were administered in combination in the hypoderm of the back in a volume of 1 mL/kg once a day for 28 days. After measuring the body weight, the body length and the tail length under isoflurane anesthesia on the day after the final day of administration, blood was collected from the abdominal aorta and the animal was caused to die, the right femur was extracted and the femur length was measured.

[2] = test system: dexamethasone-induced rat growth failure model; experiment: Combined administration study of human-type CNP-53 or various CNP derivatives in dexamethasone-induced rat growth failure model (Example 3); conditions: for plasma cholesterol concentration and thymus weight vs single administration group of dexamethasone (in words): combined with dexamethasone, 28 days; for Plasma cholesterol concentration / thymus body weight ratio / thymus weight at dissection: dexamethasone 0.67 mg/mL pump alone or combined with 15 mg/mL pump of the CNP peptide, continuous s.c. 28 days, 5-week-old male Wistar rat, n=5
Protocol: Osmotic pumps (MINI-OSMOTIC PUMP Model 2004, available from DURECT CORPORATION, flow rate: 0.25 μL/hr, for 28 days) were charged with 0.67 mg/mL solution of dexamethasone (dexamethasone injection “KS”, available from Kyoritsuseiyaku Corporation) and one osmotic pump was embedded in the hypoderm of the back of each 5-week-old male Crlj:WI (Wistar) rat (5 animals/group, Groups 2 to 6, a total of 25 animals). At the same time, one osmotic pump (the same as above) charged with a 15 mg/mL solution of CNP derivative (A) in Group 3, human-type CNP-53 in Group 4, CNP derivative (B) in Group 5 and CNP derivative (C) in Group 6 was embedded in the hypoderm of the back simultaneously. No substance was administered to the normal control group (Group 1, 5 animals). Then the animals were fed for 28 days, and transitions of the body weight, the body length and the tail length were measured. On the final day, the blood was collected from the abdominal aorta and the animals were caused to die under isoflurane anesthesia, and plasma was separated from the collected blood and the cholesterol concentration was determined by using a “LabAssay (trademark) cholesterol” (available from Wako Pure Chemical Industries, Ltd.). After collecting the blood and causing the animals to die, the right femur and thymus were extracted, and the length of the right femur and the weight of the thymus were measured.

[3] = test system: rat growth failure induced by dexamethasone; experiment: Action comparing study between CNP derivative (A) and human growth hormone on rat growth failure induced by dexamethasone (Example 6)
Protocol: Osmotic pumps (MINI-OSMOTIC PUMP Model 2004, available from DURECT CORPORATION, flow rate: 0.25 μL/hr, for 28 days) were charged with a 0.67 mg/mL solution of dexamethasone (dexamethasone injection “KS”, available from Kyoritsuseiyaku Corporation), and one osmotic pump was embedded in the hypoderm of the back of each 4-week-old male Crlj:WI (Wistar) rat (5 animals/group, Group 2 to Group 4, total of 15 animals). For Group 3, a 1 mg/mL solution of CNP derivative (A) (medium: 0.03 mol/L acetate buffer (pH 4.0)/1% benzyl alcohol/10% sucrose), and for Group 4, a 1 mg/mL solution of human-type growth hormone preparation (somatropin BS subcutaneous injection 10 mg “SANDOZ”) diluted with a phosphate buffer was administered to the hypoderm of the back of five rats, respectively, in a volume of 2 mL/kg once a day for 28 days. No substance was administered to the normal control group (5 animals, Group 1). On the final day, after measuring the body weight, the body length and the tail length, the blood was collected from the abdominal aorta and the animal was caused to die under isoflurane anesthesia, the left femur was extracted and the bone length was measured, and then a histopathological specimen of the epiphyseal region was prepared.

[4] = combined with dexamethasone, 28 days
[5] = dexamethasone 0.67 mg/mL pump alone or with CNP derivative (A) or human-type growth hormone 1 mg/mL, 2 mL/kg s.c. once a day 28 days, n=4 or 5

CCC(=O)OCC(=O)[C@@]1(OC(=O)CC)[C@@H](C)C[C@H]2[C@@H]3CCC4=CC(=O)C=C[C@]4(C)[C@@]3(F)[C@@H](O)C[C@@]21C [Betamethasone, betamethasone dipropionate]
Body length at dissection ([1]; betamethasone 0.3 mg/mL): 211 ± 2 mm
Body length, variation from preadministration value (Δ value) ([1]; betamethasone 0.3 mg/mL): (59 ± 5) mm
Body weight, variation from preadministration value (Δ value) ([1]; betamethasone 0.3 mg/mL): (208 ± 10) g
Right femur length at dissection ([1]; betamethasone 0.3 mg/mL): 33.9 ± 0.5 mm
Tail length at dissection ([1]; betamethasone 0.3 mg/mL): 213 ± 4 mm
Tail length, variation from preadministration value (Δ value) ([1]; betamethasone 0.3 mg/mL): (82 ± 3) mm
Body weight at dissection ([1]; betamethasone dipropionate (0.3 mg/mL as betamethasone)): 315 ± 11 g
growth failure in rats by repeated administration of the steroid for 28 days (in words) ([1]; rat, in vivo, sc): induce growth failure

CC[C@H](C)[C@@H]1NC(=O)[C@H](CCCNC(=N)N)NC(=O)[C@H](CC(=O)O)NC(=O)[C@H](CC(C)C)NC(=O)[C@H](CCCCN)NC(=O)[C@H](CC(C)C)NC(=O)CNC(=O)[C@H](Cc2ccccc2)NC(=O)[C@@H](NC(=O)CNC(=O)[C@H](CCCCN)NC(=O)[C@H](CO)NC(=O)[C@H](CC(C)C)NC(=O)CNC(=O)[C@H](CCCCN)NC(=O)[C@H](CCCCN)NC(=O)[C@H](CC(N)=O)NC(=O)[C@H](C)NC(=O)CNC(=O)[C@H](CCCCN)NC(=O)[C@H](Cc2ccc(O)cc2)NC(=O)[C@H](CCCCN)NC(=O)[C@H](CCCNC(=N)N)NC(=O)[C@H](C)NC(=O)[C@H](CC(N)=O)NC(=O)[C@@H]2CCCN2C(=O)[C@H](Cc2c[nH]cn2)NC(=O)[C@H](CCC(=O)O)NC(=O)[C@H](CCC(N)=O)NC(=O)CNC(=O)[C@@H]2CCCN2)CSSC[C@@H](C(=O)O)NC(=O)CNC(=O)[C@H](CC(C)C)NC(=O)CNC(=O)[C@H](CO)NC(=O)[C@H](CCSC)NC(=O)[C@H](CO)NC(=O)CNC1=O [CNP derivative (B), Pro-Gly-CNP-37]
plasma cholesterol concentration and thymus weight vs single administration group of dexamethasone (in words) [2]: a clear difference was not observed
Plasma cholesterol concentration [2]: 64.4 ± 0.8 ^NS mg/dL
thymus body weight ratio [2]: [0.14 ± 0.04%*]
thymus weight at dissection [2]: 0.42 ± 0.14 g

CC[C@H](C)[C@@H]1NC(=O)[C@H](CCCNC(=N)N)NC(=O)[C@H](CC(=O)O)NC(=O)[C@H](CC(C)C)NC(=O)[C@H](CCCCN)NC(=O)[C@H](CC(C)C)NC(=O)CNC(=O)[C@H](Cc2ccccc2)NC(=O)[C@@H](NC(=O)CNC(=O)[C@H](CCCCN)NC(=O)[C@H](CO)NC(=O)[C@H](CC(C)C)NC(=O)CN)CSSC[C@@H](C(=O)N[C@H](C(=O)N[C@@H](CCC(N)=O)C(=O)N[C@@H](CCC(N)=O)C(=O)N[C@@H](CCCNC(=N)N)C(=O)N[C@@H](CCCCN)C(=O)N[C@@H](CCC(=O)O)C(=O)N[C@@H](CO)C(=O)N[C@@H](CCCCN)C(=O)N[C@@H](CCCCN)C(=O)N2CCC[C@H]2C(=O)N2CCC[C@H]2C(=O)N[C@@H](C)C(=O)N[C@@H](CCCCN)C(=O)N[C@@H](CC(C)C)C(=O)N[C@@H](CCC(N)=O)C(=O)N2CCC[C@H]2C(=O)N[C@@H](CCCNC(=N)N)C(=O)O)C(C)C)NC(=O)CNC(=O)[C@H](CC(C)C)NC(=O)CNC(=O)[C@H](CO)NC(=O)[C@H](CCSC)NC(=O)[C@H](CO)NC(=O)CNC1=O [CNP derivative (C), CNP (1-22) Ghrelin (12-28, SEQ ID NO: 8)] (H-GLSKGCFGLKLDRIGSMSGLGCVQQRKESKKPPAKLQPR-OH; disulfide 6-22)
plasma cholesterol concentration and thymus weight vs single administration group of dexamethasone (in words) [2]: a clear difference was not observed
Plasma cholesterol concentration [2]: 59.2 ± 7.4 ^NS mg/dL
thymus body weight ratio [2]: [0.11 ± 0.02% ^NS]
thymus weight at dissection [2]: 0.35 ± 0.06 g

C[C@]12C=CC(=O)C=C1CC[C@@H]1[C@@H]2[C@@H](O)C[C@@]2(C)[C@H]1CC[C@]2(O)C(=O)COC(=O)CCC(=O)O [prednisolone succinate]
Body length at dissection ([1]; prednisolone 5 mg/mL): 209 ± 4 mm
Body length, variation from preadministration value (Δ value) ([1]; prednisolone 5 mg/mL): (58 ± 4) mm
Body weight, variation from preadministration value (Δ value) ([1]; prednisolone 5 mg/mL): (191 ± 14) g
Right femur length at dissection ([1]; prednisolone 5 mg/mL): 33.3 ± 0.3 mm
Tail length at dissection ([1]; prednisolone 5 mg/mL): 206 ± 6 mm
Tail length, variation from preadministration value (Δ value) ([1]; prednisolone 5 mg/mL): (79 ± 9) mm
Body weight at dissection ([1]; prednisolone succinate (5 mg/mL as prednisolone)): 298 ± 14 g
growth failure in rats by repeated administration of the steroid for 28 days (in words) ([1]; s.c. once a day 28 days, body weight gain, body, tail and femur length, p<0.05 or 0.01): induce growth failure

DLRVDTKSRAAWARLLQEHPNARKYKGANKKGLSKGCFGLKLDRIGSMSGLGC (disulfide 37-53) [human-type CNP-53]
plasma cholesterol concentration and thymus weight vs single administration group of dexamethasone (in words) [2]: a clear difference was not observed
Plasma cholesterol concentration [2]: 62.1 ± 2.2 ^NS mg/dL
thymus body weight ratio [2]: [0.11 ± 0.01% ^NS]
thymus weight at dissection [2]: 0.33 ± 0.03 g

human-type growth hormone: human-type growth hormone preparation, existing therapeutic drug for dwarfism
elongation of the body length and the tail length vs dexamethasone-only administration group (in words) [3, 4]: no significant difference
left femur length on the final day vs dexamethasone-only administration group (in words) [3, 4]: No significant difference
Body weight at dissection ([3]; dexamethasone 0.67 mg/mL pump 28 days alone or with CNP derivative (A) or human-type growth hormone 1 mg/mL, 2 mL/kg s.c. once a day 28 days, 4-week-old male Wistar rat, mean ± SD, n=4 or 5): 255 ± 7 g
Body length at dissection [3, 5]: 199 ± 5 mm
Body length, variation from pre-administration value (Δ value) [3, 5]: (44.8 ± 3.7) mm
Body weight, variation from pre-administration value (Δ value) [3, 5]: (149 ± 3) g
Left femur length at dissection [3, 5]: 31.7 ± 0.6 mm
Tail length at dissection [3, 5]: 199 ± 3 mm
Tail length, variation from pre-administration value (Δ value) [3, 5]: (66.8 ± 5.0) mm
growth plate cartilage layer of the epiphyseal region of the left femur (in words) ([3]; histology, toluidine blue (FIG. 5), tendency, combinations compared with dexamethasone only): swelling
